Read-outs that look alike come from different tables or passages of the source.
What was measured:
[1] = biological target: Beta Secretase enzyme (BACE) (Homo sapiens, UniProt P56817); test: In vitro enzymatic BACE FRET (fluorescence resonance energy transfer) assay; assay type: biochemical;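 note: fluorescence read after 1 h with 50 nM quenched peptide substrate spanning the BACE cleavage site, in pH 4.2 acetate buffer containing 10% DMSO and nonionic detergent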
[2] = tested on: Aβ40 in conditioned medium of cells stably expressing Amyloid Precursor Protein (APP); test: In vitro BACE cell-based assay (Aβ40 in conditioned medium, sandwich ELISA);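 note: compounds added as a dilution series, secreted peptide quantified by europium time-resolved fluorescence readout, potency fitted from percent of control versus compound concentration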
[3] = BACE enzyme FRET assay, read-out: BACE1 FRET assay (IC50)
[4] = HEK cells, cell-based assay, read-out: HEK cell assay (IC50)
[5] = BACE enzyme assay, read-out: BACE1 FRET assay (IC50)
[6] = Homo sapiens, HEK293, HEK cells, cell-based assay, read-out: HEK cell assay (IC50)
[7] = BACE enzyme assay, IC50's in uM, read-out: BACE1 FRET assay
[8] = Homo sapiens, HEK293, cell-based assay, HEK cells, IC50's in uM, read-out: HEK cell assay
[9] = Table 1, read-out: BACE1 FRET assay
[10] = Homo sapiens, HEK293, Table 1, HEK cells, read-out: HEK cell assay

Chain of Beta Secretase enzyme (BACE) (P56817 46-501): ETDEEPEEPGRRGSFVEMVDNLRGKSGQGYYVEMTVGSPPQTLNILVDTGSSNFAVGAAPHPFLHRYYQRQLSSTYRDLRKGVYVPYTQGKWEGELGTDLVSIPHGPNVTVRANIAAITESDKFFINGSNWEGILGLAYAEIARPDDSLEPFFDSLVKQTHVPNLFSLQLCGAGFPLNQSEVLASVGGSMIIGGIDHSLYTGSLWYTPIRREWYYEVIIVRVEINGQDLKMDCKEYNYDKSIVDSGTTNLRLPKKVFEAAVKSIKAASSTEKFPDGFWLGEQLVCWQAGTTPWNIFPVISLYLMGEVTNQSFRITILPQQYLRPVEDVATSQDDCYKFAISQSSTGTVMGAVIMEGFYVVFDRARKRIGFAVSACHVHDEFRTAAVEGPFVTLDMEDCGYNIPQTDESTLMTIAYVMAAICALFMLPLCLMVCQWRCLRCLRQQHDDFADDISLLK

Row | Compound | IC50 [1, 5] | IC50 [2, 6] | also measured
1 | N-((1S,2R)-1-(1,3-benzodioxol-5-ylmethyl)-3-(((1r,3R,4′S)-6′-(2,2-dimethylpropyl)-3-hydroxy-3′,4′-dihydrospiro[cyclobutane-1,2′-pyrano[2,3-c]pyridin]-4′-yl)amino)-2-hydroxypropyl)acetamide N-((1S,2R)-1-(1,3-benzodioxol-5-ylmethyl)-3-(((1s,3S,4′S)-6′-(2,2-dimethylpropyl)-3-hydroxy-3′,4′-dihydrospiro[cyclobutane-1,2′-pyrano[2,3-c]pyridin]-4′-yl)amino)-2-hydroxypropyl)acetamide [compound 264] | – | – | IC50 [1, 3]: 0.0422 µM; IC50 [2, 4]: 0.0688 µM
2 | CC(C)(C)Cc1cnc2c(c1)[C@@H](NC[C@@H](O)[C@H](Cc1ccc3c(c1)OCO3)NC(=O)C(F)(F)Cl)CC1(CCC1)O2 [compound 99] | 0.0593 µM | 0.317 µM | –
3 | COC(C)C(=O)NC(Cc1cc(F)cc(F)c1)C(O)CNC1CC2(CCC2)Oc2ncc(CC(C)(C)C)cc21 [compound 102, (R)—N-((2S,3R)-1-(3,5-difluorophenyl)-3-hydroxy-4-((S)-6-neopentyl-3,4-dihydrospiro[cyclobutane-1,2H-pyrano[2,3-b]pyridin-4-ylamino)butan-2-yl)-2-methoxypropanamide] | 0.0053 µM | – | IC50 [2, 4]: 0.0106 µM
4 | C#CCCC(=O)N[C@@H](Cc1cccc(F)c1)[C@H](O)CN[C@H]1CC2(CCC2)Oc2ncc(CC(C)(C)C)cc21 [compound 859] | – | – | IC50 [1, 7]: 0.004 µM; IC50 [2, 8]: 0.027 µM
5 | CO[C@H](C)C(=O)N[C@@H](Cc1cccc(C#N)c1)[C@H](O)CN[C@H]1CC2(CCC2)Oc2ncc(CC(C)(C)F)cc21 [compound 58] | 0.00575 µM | 0.00678 µM | –
6 | CC(=O)N[C@@H](Cc1ccc(F)cc1)[C@H](O)CN[C@H]1CC2(CCC2)Oc2c(F)cc(CC(C)(C)C#N)cc21 [compound 171] | 0.0159 µM | 0.0282 µM | –
7 | COCC(=O)N[C@@H](Cc1ccc(F)cc1)[C@H](O)CN[C@H]1CC2(CCC2)Oc2ccc(CC(C)(C)C)nc21 [compound 123, N-((1S,2R)-3-(((4′S)-6′-(2,2-dimethylpropyl)-3′,4′-dihydrospiro[cyclobutane-1,2′-pyrano[3,2-b]pyridin]-4′-yl)amino)-1-((4-fluorophenyl)methyl)-2-hydroxypropyl)-2-(methyloxy)acetamide] | 3.72 µM | 3.81 µM | –
8 | COCC(=O)N[C@@H](Cc1ccccc1)[C@H](O)CN[C@H]1CC2(CCC2)Oc2ncc(CC(C)C)cc21 [compound 328] | – | – | IC50 [1, 9]: 0.00919 µM; IC50 [2, 10]: 0.023 µM
9 | COCC(=O)N[C@@H](Cc1ccc(F)cc1)[C@H](O)CN[C@H]1CC2(CCC2)Oc2cnc(CC(C)(C)F)cc21 [compound 255] | – | 0.216 µM | IC50 [1, 3]: 0.19 µM
10 | CC(C)(C)Cc1cnc2c(c1)[C@@H](NC[C@@H](O)[C@H](Cc1ccc3c(c1)OCO3)NC(=O)[C@H]1CCCO1)CC1(CCC1)O2 [compound 454, (2R)-N-((1S,2R)-1-(1,3-benzodioxol-5-ylmethyl)-3-(((4′S)-6′-(2,2-dimethylpropyl)-3′,4′-dihydrospiro[cyclobutane-1,2′-pyrano[2,3-b]pyridin]-4′-yl)amino)-2-hydroxypropyl)tetrahydro-2-furancarboxamide] | – | – | IC50 ([1]; Table 2, read-out: BACE1 FRET assay): 0.02 µM; IC50 ([2]; Homo sapiens, HEK293, Table 2, HEK cells, read-out: HEK cell assay): 0.027 µM
11 | C=CC[C@H](NC(=O)COC)[C@H](O)CN[C@H]1CC2(CCC2)Oc2cnc(CC(C)(C)C)cc21 [compound 120] | 0.745 µM | 0.343 µM | –
12 | CC(=O)N[C@@H](Cc1ccc(F)cc1)[C@H](O)CN[C@@H]1c2cc(CC(C)(C)C)cnc2OC2(CCC2)[C@@H]1F [compound 358] | – | – | IC50 [1, 9]: 0.0224 µM; IC50 [2, 10]: 0.353 µM
13 | COC(C(=O)N[C@@H](Cc1ccc(F)cc1)[C@H](O)CN[C@H]1CC2(CCC2)Oc2ncc(CC(C)(C)C)cc21)C(F)(F)F (stereo partly drawn) [compound 59] | 0.364 µM | 0.171 µM | –
14 | COCC(=O)N[C@@H](Cc1cccc(C#N)c1)[C@H](O)CN[C@H]1CC2(CCC2)Oc2ncc(CC(C)(C)F)cc21 [compound 57] | 0.00294 µM | 0.0053 µM | –
15 | COCC(=O)NC(Cc1cccc(F)c1)C(O)CNC1CC2(CC(O)C2)Oc2cnccc21 [compound 236, N-((1S,2R)-1-((3-fluorophenyl)methyl)-2-hydroxy-3-(((1r,3R,4′S)-3-hydroxy-3′,4′-dihydrospiro[cyclobutane-1,2′-pyrano[2,3-c]pyridin]-4′-yl)amino)propyl)-2-(methyloxy)acetamide] | – | – | IC50 [1, 3]: 5.18 µM; IC50 [2, 4]: 0.27 µM
16 | CC(=O)N[C@@H](Cc1ccc(F)c(OC(F)(F)F)c1)[C@H](O)CN[C@H]1CC2(CCC2)Oc2ncc(CC(C)(C)F)cc21 [compound 77] | 0.00488 µM | 0.016 µM | –
17 | CO[C@H](C)C(=O)N[C@@H](Cc1ccc2c(c1)OC(F)(F)O2)[C@H](O)CN[C@H]1CC2(CCC2)Oc2ncc(CC(C)(C)C)cc21 [compound 295] | – | 1.33 µM | IC50 [1, 3]: 0.0969 µM
18 | CC(=O)N[C@@H](Cc1cccc(F)c1)[C@H](O)CN[C@H]1CC2(CCC2)Oc2ccc(CC(C)(C)F)cc21 [compound 201, N-((1S,2R)-3-(((4S)-6-(2-fluoro-2-methylpropyl)-3,4-dihydrospiro[chromene-2,1′-cyclobutan]-4-yl)amino)-1-((3-fluorophenyl)methyl)-2-hydroxypropyl)acetamide] | – | 0.0768 µM | IC50 [1, 3]: 0.0201 µM
19 | CC(=O)N[C@@H](Cc1ccc(F)cc1)[C@H](O)CN[C@H]1CC2(CCC2)Oc2ncc(CC3(C(F)(F)F)CC3)cc21 [compound 310] | – | 0.166 µM | IC50 [1, 3]: 0.0505 µM
20 | CC(C)(C)Cc1cnc2c(c1)[C@@H](NC[C@@H](O)[C@H](Cc1cccc(F)c1)NC(=O)C(Cl)Cl)CC1(CCC1)O2 [compound 105] | 0.00406 µM | 0.0295 µM | –

Row | Compound | IC50 [1, 5] | IC50 [2, 6] | also measured
21 | CC(=O)C(=O)N[C@@H](Cc1ccc2c(c1)OCO2)[C@H](O)CN[C@H]1CC2(CCC2)Oc2ncc(CC(C)(C)C)cc21 [compound 307] | – | 0.0683 µM | IC50 [1, 3]: 0.0313 µM
22 | CO[C@H](C)C(=O)N[C@@H](Cc1cccc(F)c1F)[C@H](O)CN[C@H]1CC2(CCC2)Oc2ncc(CC(C)(C)F)cc21 [compound 71] | 0.0339 µM | 0.0927 µM | –
23 | C#Cc1ccc(C[C@H](NC(=O)COC)[C@H](O)CN[C@H]2CC3(CCC3)Oc3ncc(CC(C)C)cc32)cc1 [Example 855] | – | – | IC50 [1, 7]: 0.062 µM; IC50 [2, 8]: 0.174 µM
24 | CC(C)(C)Cc1cnc2c(c1)[C@@H](NC[C@@H](O)[C@H](Cc1ccc3c(c1)OCO3)NC(=O)OCc1cncs1)CC1(CCC1)O2 [compound 101] | 0.159 µM | – | IC50 [2, 4]: 1.85 µM
25 | CNc1nc(CC(C)(C)C)cc2c1OC1(CCC1)C[C@@H]2NC[C@@H](O)[C@H](Cc1ccc(F)cc1)NC(=O)COC [compound 147] | 0.0495 µM | 0.0232 µM | –
26 | COC(C)C(=O)NC(Cc1ccc2c(c1)OCO2)C(O)CNC1CC2(CC(C)C2)Oc2ncc(CC(C)C)cc21 [compound 134, (2R)—N-((1S,2R)-1-(1,3-benzodioxol-5-ylmethyl)-2-hydroxy-3-(((1s,3R,4′S)-3-methyl-6′-(2-methylpropyl)-3′,4′-dihydrospiro[cyclobutane-1,2′-pyrano[2,3-b]pyridin]-4′-yl)amino)propyl)-2-(methyloxy)propanamide] | 0.0272 µM | 0.192 µM | –
27 | COCC(=O)N[C@@H](Cc1cccc(F)c1)[C@H](O)CN[C@H]1CC2(CCC2)Oc2ncc(CC(C)C)cc21 [compound 329] | – | – | IC50 [1, 9]: 0.00326 µM; IC50 [2, 10]: 0.00601 µM
28 | COCC(=O)N[C@@H](Cc1cccc(F)c1)[C@H](O)CN[C@H]1CC2(CCC2)Oc2ncc(CC(C)(C)F)cc21 [compound 284] | – | 0.00477 µM | IC50 [1, 3]: 0.00265 µM
29 | CO[C@@H](C)C(=O)N[C@@H](Cc1ccc(F)cc1)[C@H](O)CN[C@H]1CC2(CCC2)Oc2c(F)cc(CC(C)(C)C)cc21 [compound 175] | 0.0173 µM | 0.229 µM | –
30 | CC(F)(F)Oc1cnc2c(c1)[C@@H](NC[C@@H](O)[C@H](Cc1cccc(F)c1)NC(=O)[C@@H]1CCC(=O)O1)CC1(CCC1)O2 [compound 152] | 0.0106 µM | 0.0336 µM | –
31 | COCC(=O)N[C@@H](Cc1ccc(F)c(OC(F)F)c1)[C@H](O)CN[C@H]1CC2(CCC2)Oc2ncc(CC(C)(C)C)cc21 [compound 214] | – | 0.00903 µM | IC50 [1, 3]: 0.00877 µM
32 | COCC(=O)N[C@@H](Cc1ccc2c(c1)OCO2)[C@H](O)CN[C@H]1CC2(CCC2)Oc2c1cc(CC(C)(C)C)nc2NCC(F)(F)F [compound 142] | 0.35 µM | 1.95 µM | –
33 | CC(O)C(=O)N[C@@H](Cc1ccc(F)cc1)[C@H](O)CN[C@H]1CC2(CCC2)Oc2ncc(CC(C)(C)C)cc21 (stereo partly drawn) [compound 156] | 0.0277 µM | 0.0453 µM | –
34 | CO[C@@H](C)C(=O)N[C@@H](Cc1cccc(F)c1)[C@H](O)CN[C@H]1CC2(CCC2)Oc2ncc(CC(C)(C)C)cc21 [compound 361] | – | – | IC50 [1, 9]: 0.00658 µM; IC50 [2, 10]: 0.00923 µM
35 | COC(C(=O)N[C@@H](Cc1cccc(F)c1)[C@H](O)CN[C@H]1CC2(CCC2)Oc2ncc(CC(C)(C)C)cc21)C(F)(F)F (stereo partly drawn) [compound 65] | 0.0343 µM | 0.127 µM | –
36 | CO[C@@H](C)C(=O)N[C@@H](Cc1ccc(F)cc1)[C@H](O)CN[C@H]1CC2(CCC2)Oc2c(F)cc(CC(C)(C)C#N)cc21 [compound 173] | 0.0364 µM | 0.0546 µM | –
37 | CO[C@H](C)C(=O)N[C@@H](Cc1ccc2c(c1)OCO2)[C@H](O)CN[C@H]1CC2(CCC2)Oc2ncc(C[C@H](C)C(F)(F)F)cc21 [compound 340] | – | – | IC50 [1, 9]: 0.148 µM; IC50 [2, 10]: 0.0906 µM
38 | COCC(=O)N[C@@H](CC1CC1)[C@H](O)CN[C@H]1CC2(CCC2)Oc2ncc(CC(C)(C)C)cc21 [compound 213] | – | 0.0787 µM | IC50 [1, 3]: 0.057 µM
39 | COCC(=O)N[C@@H](Cc1cccc(F)c1)[C@H](O)CN[C@H]1CC2(CCC2)Oc2ncc(C[C@H](C)C(F)(F)F)cc21 [compound 325] | – | – | IC50 [1, 9]: 0.00371 µM; IC50 [2, 10]: 0.0137 µM
